Assays:
TPC1 [1] = test: Surface HLA-A02 and HLA-ABC by flow cytometry (BB7, W6/32) after 72 hours; format: cell-based, human; conditions: different doses
Method: (§1) FIG. 14A-FIG. 14C: TPC1 (a papillary thyroid cancer cell line) treated with AST487 increased HLA surface expression. FIG. 14A and FIG. 14B: TPC1 cells were seeded and treated with different doses of AST487 (a RET inhibitor). After 72 hours, cells were harvested and surface HLA-A02 and HLA-ABC were measured through flow cytometry with BB7 and W6/32 staining antibodies, respectively. FIG. 14C: After 24 hours of AST487 incubation, cells were lysed and a western blot was performed to show a decrease in pRET and pERK with AST487 treatment.
(§2) The effect of AST487, a RET inhibitor, on TPC1 (a papillary thyroid cancer cell line) was investigated. TPC1 cells were seeded and treated with different doses of AST487. After 72 hours, cells were harvested and surface HLA-A02 and HLA-ABC were measured through flow cytometry with BB7 and W6/32 staining antibodies, respectively (FIG. 14A-FIG. 14B).

pRET and pERK = test: Western blot for pRET and pERK after 24 hours; format: cell-based, human; conditions: TPC1
Method: as §1, §2

TT cells = test: Surface HLA-A02 and HLA-ABC by flow cytometry (BB7, W6/32) after 72 hours; format: cell-based, human; conditions: different doses
Method: FIG. 15A and FIG. 15B: TT cells were seeded and treated with different doses of AST487 (a RET inhibitor). After 72 hours, cells were harvested and surface HLA-A02 and HLA-ABC were measured through flow cytometry with BB7 and W6/32 staining antibodies, respectively. FIG. 15C: After 24 hours of AST487 incubation, cells were lysed and a western blot was performed. TT cells are derived from a medullary thyroid cancer that has a RET point mutation, as opposed to the TPC1 cells, which are derived from a papillary thyroid cancer and have a RET/PTC1 fusion.
The same analysis was performed in TT cells (a medullary thyroid cancer cell line). TT cells are derived from a medullary thyroid cancer that has a RET point mutation, as opposed to TPC1 cells, which are derived from a papillary thyroid cancer and have a RET/PTC1 fusion. TT cells were seeded and treated with different doses of AST487. After 72 hours, cells were harvested and surface HLA-A02 and HLA-ABC were measured through flow cytometry with BB7 and W6/32 staining antibodies, respectively (FIG. 15A-FIG. 15B). After 24 hours of AST487 incubation, cells were lysed and a western blot was performed (FIG. 15C).

TPC1 [2] = test: qPCR of transcript levels of HLA and antigen processing machinery; format: cell-based, human; conditions: 24 or 48 hours
Method: Using qPCR, transcript levels of HLA and antigen processing machinery were measured after TPC1 cells were treated with AST487 for 24 (FIG. 17A) or 48 hours (FIG. 17B). Upregulation of mRNA levels for HLA and antigen processing machinery were seen.
Real-Time PCR: Total RNA was extracted using Qiagen RNA Easy Plus (Qiagen; #74134) after cells were treated for 48 hrs with indicated inhibitor. RNA was converted into cDNA using gScript™ cDNA SuperMix (Quanta Biosciences Gaithersburg, Md. USA). Real-time assays were conducted using TaqMan real-time probes. (Life Technlogies) for human HLA-A (Hs01058806_gl), B2M (Hs00187842_ml), TAP1 (Hs00388677_ml), TAP2 (Hs00241060_ml), and TBP (Hs00427620_ml) using 50 ng cDNA. For assessment of gene expression using RT-PCR PerfeCTa® FastMix® II (Quanta), reactions were carried out in triplicates using standard thermocycling conditions (2 minutes at 50° C., 10 minutes at 95° C., 40 cycles of 15 seconds at 95° C., and 1 minute at 60° C.). TBP was used as internal control and ΔΔCT method was used for relative mRNA calculations.
Next, using qPCR, transcript levels of HLA and antigen processing machinery were measured after TPC1 cells were treated with AST487 for 24 (FIG. 17, left panel) or 48 hours (FIG. 17, right panel). Upregulation of mRNA levels for HLA and antigen processing machinery were seen.

TPC1 [3] = test: Binding of TCR mimic antibody ESK and ADCC (chromium release) with ESK-M; format: cell-based, human
Method: FIG. 18A-FIG. 18B: AST487 increased cytolytic activity of TCRm antibody. FIG. 18A: TPC1 cells were treated with different doses of AST487 and binding of ESK (a TCR mimic monoclonal antibody specific for the WT1 RMF peptide/HLA-A02:01 complex) was measured. FIG. 18B: With increase of ESK binding in vitro, the effect on cytolytic activity of ESK was measured with an ADCC assay. TPC1 cells were treated with AST487 or DMSO for 72 hours and then incubated with chromium. Peripheral blood mononuclear cells (PBMCs), chromium labeled target cells, and ESK-M (or an isotype) were mixed and incubated for 5 hours. Varying effector to target ratios were used. Afterwards, chromium levels in the media were measured to determine percent specific lysis.
For FIG. 18A, TPC1 cells were treated with different doses of AST487 and binding of ESK (a TCR mimic monoclonal antibody specific for the WT1 RMF peptide/HLA-A02:01 complex) was measured. For FIG. 18B, with increase of ESK binding in vitro, the effect on cytolytic activity of ESK was measured with an antibody-dependent cell-mediated cytotoxicity (ADCC) assay. TPC1 cells were treated with AST487 or DMSO for 72 hours and then incubated with chromium. PBMCs, chromium labeled target cells, and ESK-M (or an isotype) were mixed and incubated for 5 hours. […] Afterwards, chromium levels in the media were measured to determine percent specific lysis.

TPC1 cells = test: In vivo treatment of subcutaneous TPC1 tumors, flow cytometry of tumor cells; set-up: species or system NRG mice; conditions: 7 days of treatment
Method: FIG. 19A-FIG. 19B: AST487 treatment in vivo increased surface HLA expression levels. FIG. 19A: NRG mice were injected with TPC1 cells and treated with vehicle (control) or AST487. BB7 and W6/32 binding on TPC1 cells were measured, and are shown in FIG. 19A (normalized to vehicle-treated mice) for vehicle-treated, 10 mg/kg AST487-treated, and 35 mg/kg AST487-treated mice. […] PD-L1 levels were measured as binding to anti-PD-L1 antibody.
NRG mice (Jackson labs NOD-Rag 1 null IL2rgnull, NOD rag gamma) were injected with TPC1 cells subcutaneously, and then treated 4 weeks later with vehicle (phosphate buffered saline) or with AST487 (a RET inhibitor) at a dose of 10 mg/kg or 35 mg/kg. After 7 days of treatment, tumors were harvested, and tumor cells were assessed for binding to BB7 (a monoclonal antibody specific to HLA-A02) and binding to W6/32 (a monoclonal antibody specific to pan HLA-ABC). Tumor cells were GFP-labeled and were distinguished from stroma and normal cells by gating for GFP in flow cytometry. […] One mouse in the vehicle control group was excluded as an outlier with 99% confidence interval as determined by Q test. PD-L1 expression by the tumor was also assessed by measuring binding of anti-PD-L1 antibody.

cytolytic activity of TCRm antibody (ADCC, ESK-M) (TPC1 [3]; 72 hours AST487, then PBMCs and ESK-M 5 hours): increased
ESK binding (TPC1 [3]; different doses): increase
Structure (SMILES): CCN1CCN(Cc2ccc(NC(=O)Nc3ccc(Oc4cc(NC)ncn4)cc3)cc2C(F)(F)F)CC1 [AST487, 1-[4-[(4-ethylpiperazin-1-yl)methyl]-3-(trifluoromethyl)phenyl]-3-[4-[6-(methylamino)pyrimidin-4-yl]oxyphenyl]urea]
HLA class I surface expression (TPC1 [1]): increased
pRET and pERK (pRET and pERK): decrease
surface HLA-A (TT cells): upregulated
mRNA levels for HLA and antigen processing machinery (TPC1 [2]): Upregulation
HLA-A02 expression (BB7 binding) on the surface of the tumor cells (TPC1 cells; 10 mg/kg or 35 mg/kg): increased
pan HLA-ABC expression (W6/32 binding) on the surface of the tumor cells (TPC1 cells; 10 mg/kg or 35 mg/kg): increased
expression of PD-L1 by the tumor (TPC1 cells; anti-PD-L1 antibody binding): did not change
